# Assay results taken from patent US20190010524A1, “BIOLOGICAL METHODS FOR PREPARING A FATTY DICARBOXYLIC ACID” (Verdezyne, Inc., priority 2012, published 2019).
# Columns and labels:
# [1] = test system: Candida tropicalis strain (sAA496); experiment: Fermentation of coconut oil to mixed diacids at different pH; assay type: cell-based; settings: coconut oil 80 g/L, 140 hours
# Protocol: Autoclaved virgin coconut oil was added to the vessel to a final concentration of 80 g/L. A partially beta-oxidation blocked Candida tropicalis strain (sAA496) was inoculated to an initial OD600nm of 1.0 with a 5% inoculum and grown under the following conditions: 30° C. with shaking at about 1200 rpm, 1 vvm, initial pH 6.5 and initial volume of 1.0 L. The effect of pH on the distribution of fatty acid chain lengths was determined by manipulating the pH of the fermentation media. The pH of the fermentation was either 1) increased to pH 7.5 and controlled at that pH for the entire run, 2) allowed to drop-naturally due to the growth of the culture before controlling at pH 6.0 for the rest of the run; or 3) allowed to drop naturally due to the growth of the culture before controlling at pH 4.5 for the rest of the run. Samples were collected for GC analysis after 140 hours of fermentation time.
# [2] = test system: strain sAA1082; experiment: Production of DDDA from ethyl laurate or methyl laurate feedstock (Example 67); assay type: cell-based, Candida
# Protocol: Methyl laurate feed rates varied as follows: 0.75 g/L-h for the first 24 h; 1.2 g/L-h from 24 h to termination. Ethyl laurate was fed at a rate of 0.75 gL-h for the first 24 h; 1.28 g/L-h from 24 h to termination. […] Also at induction a co-feed of dextrose was fed at a rate of either 1.25 g/L-h or 0.9 g/L-h. In TABLE 35, data from these two ethyl laurate fermentations were compared to similar data obtained from methyl laurate fermentations run under the same conditions.
# [3] = test system: sAA2178; experiment: Shake flask bioconversion of feedstocks of varying chain length (Example 72); assay type: cell-based, Candida; settings: for Feedstock Yield (g diacid/g added feedstock) sAA-2178: shake flask, ethyl esters 1% v/v, alkanes 3% v/v
# Protocol: (§1) The bioconversion tests in this Example were undertaken following a shake flask protocol. […] The YPD contained 10 g/L yeast extract, 20 g/L peptone, and 20 g/L dextrose. These cultures were then placed in a 30° C. shaking incubator at 250 rpm for 18 to 20 hours.
# (§2) After this growth phase, these cultures were used to inoculate 350 ml of SP92-glycerol media dispensed into 10-250 ml wide mouth flasks in 35 ml aliquots for each strain. The SP92-glycerol media contained 6.7 g/L yeast nitrogen base, 3 g/L yeast extract, 3 g/L ammonium sulfate, 1 g/L potassium phosphate monobasic; 1 g/L potassium phosphate, dibasic, and 75 g/L glycerol (Picataggio S., et al., Biotechnology (NY) 1992 August; 10 (8):894-8). The cultures were then placed in a 30° C. shaking incubator at 300 rpm for 20 to 24 hours.
# (§3) The cells were then centrifuged for 5 minutes at 3000 rpm and the supernatant discarded. The cells were resuspended in DCA3 medium supplemented with 1.0% triton-X100. DCA3 is a 0.3 M potassium phosphate buffer, pH 7.5 containing 6.7 g/L yeast nitrogen base and 50 g/L glycerol. Variations of DCA3 media recipes are known, non-limiting examples of which include the addition of dextrose and/or glycerol, the like or combinations thereof. DCA3 media, as referred to herein, can include dextrose and/or glycerol. After re-suspension, the OD600 nm for each culture was adjusted to a common OD (based on the available OD for the strain with the least growth) and 10 ml was transferred to pre-weighed 250 ml bottom baffled shake flasks. The flasks were then reweighed to determine the starting weight of the culture. The substrate to be converted was then added at 1% v/v for ethyl esters and 3% v/v for alkanes. The increased amount of alkanes added was due to their volatility to ensure that sufficient substrate remained in solution for bioconversion. The flasks were weighed once more to determine the exact amount of substrate added to each flask and were then placed, in a 30° C. shaking incubator at 300 rpm for 4 hours. Bioconversion tests for ethyl-stearate and ethyl palmitate were performed at 35° C. due to melting point limitations for these substrates.
# (§4) After 48 hours, the flasks were weighed once more to determine the weight of the final culture. The cultures were mixed well by swirling and 1 ml was transferred to a pre-weighed 15 ml falcon tube containing 0.8 ml of 6N HCl. The tube was weighed to determine the density of the final culture and this number used to determine the culture volume present at the final time point. Samples were submitted to analytical for analysis by GC.
# [4] = test system: sAA1082; experiment: as above; assay type: cell-based, Candida; settings: for Feedstock Yield (g diacid/g added feedstock) sAA-1082: shake flask, ethyl esters 1% v/v, alkanes 3% v/v
# Protocol: as §1, §2, §3, §4
# [5] = test system: Candida strain ATTC 20962; experiment: as above; assay type: cell-based; settings: ethyl esters 1% v/v, alkanes 3% v/v
# Protocol: as §1, §2, §3, §4
# [6] = test system: strain sAA2178; experiment: Production of DDDA using sucrose or dextrose as co-feed (Example 68); assay type: cell-based, Candida; settings: co-feed 0.9 g/L-h; for production of DDDA: ethyl laurate feed, three fermentations averaged
# Protocol: A pre-culture of 80 mL SP92 in a 500 mL baffled flask with foam plugs was inoculated with 1.0 mL from a frozen glycerol stock of strain sAA2178 (beta-oxidation blocked strains plus amplified CPRB, CYP52A19, ADH2a, ADH8, and HFD2) and incubated for 24 h at 30° C. and 250 RPM. […] Growth was initiated an inoculum of pre-culture to an initial OD600nm=1.0 and growth conditions of 35° C., 1000 rpm, 1 vvm, pH 5.8. Growth continued for approximately 10-12 h at which point the conversion phase was initiated by a continuous feed of ethyl laurate. […] The data from three fermentations were averaged for the comparison.
# [7] = test system: strain sAA2178; experiment: Production of DDDA with glycerol or xylose substituted for dextrose as co-feed (Example 69); assay type: cell-based, Candida; settings: co-feed 1.25 g/L-h; for production of DDDA: ethyl laurate feed
# Protocol: A pre-culture of 80 mL SP92 in a 500 mL baffled flask with foam plugs was inoculated with 1.0 mL from a frozen glycerol stock of strain sAA2178 (beta-oxidation blocked strains plus amplified CPRB, CYP52A19, ADH2a, ADH8, and HFD2) and incubated for 24 h at 30° C. and 250 RPM. […] Growth was initiated with an inoculum of pre-culture to an/initial OD600nm=1.0 and growth conditions of 35° C., 1000 rpm, 1 vvm; pH 5.8. Growth continued for approximately 10-12 h at which point the conversion phase was initiated by a continuous feed of ethyl laurate. Ethyl laurate was fed at a rate of 0.75 g/L-h for the first 24 h; 1.28 g/L-h from 24 h to termination. In addition, a co-feed of either dextrose, glycerol or xylose was fed at a rate of 1.25 g/L-h for all fermentations.
# [8] = test system: strain sAA1082; settings: ethanol co-feed 0.7 g/L-h
# Protocol: Fermentation medium (MM1) at pH 5.8 was filter sterilized and transferred to a sterile fermentation vessel. For the control, dextrose was used for both growth and co-feed. For the experimental fermentations, glycerol or xylose was substituted oh a g/g basis for dextrose in both the growth medium (MM1) and in the co-feed. Growth was initiated with an inoculum of pre-culture to an initial OD600nm=1.0 and growth conditions of 35° C., 1000 rpm, 1 vvm, pH 5.8. Growth continued for approximately 10-12 h at which point the conversion phase was initiated by a continuous feed of methyl laurate. Methyl laurate was fed at a rate of 0.7 g/L-h for the first 24 h; 1.2 g/L-h from 24 h to termination. In addition, a co-feed of ethanol was fed at a rate of 0.7 g/L-h. The ethanol feed-rate was reduced relative to what would normally be used for glucose (1.2 g/l-h), since ethanol is theoretically a more energy-rich compound. At induction, the temperature was changed to 30° C. and the pH was maintained at 6.0 by addition of 6N KOH.
# [9] = dextrose co-feed rate 0.9 g/L-h
# [10] = dextrose co-feed rate 1.25 g/L-h
smiles,measurement,setting,value
O=C(O)CCCCC(=O)O [Adipic Acid],Diacid composition (fraction of total diacids),[1]; pH 4.5,0.32
same,Diacid composition (fraction of total diacids),[1]; pH 6.0,0.12
same,Diacid composition (fraction of total diacids),[1]; pH 7.5,0.05
"O=C(O)CCCCCCCCCCC(=O)O [C12 Diacid, dodecanedioic acid]",Diacid composition (fraction of total diacids),[1]; pH 4.5,0.00
same,Diacid composition (fraction of total diacids),[1]; pH 6.0,0.03
same,Diacid composition (fraction of total diacids),[1]; pH 7.5,0.16
CCCCCCCCCCCC(=O)OCC [Ethyl Laurate],HFA,[2]; [9],2.48 g/L
same,Lauric Acid,[2]; [9],2.00 g/L
same,Productivity (g/L-h),[2]; [9],0.832 g/L-h
same,HFA,[2]; [10],1.64 g/L
same,Lauric Acid,[2]; [10],0.71 g/L
same,Productivity (g/L-h),[2]; [10],0.879 g/L-h
same,improvement in productivity over the methyl laurate fermentation with similar co-feed rate,[2]; higher dextrose feed,about 6%
CCCCCCCCCCCCCCCC(=O)OCC [Ethyl palmitate],% improvement over ATTC 20962 sAA-2178,[3],51.2%
same,Feedstock Yield (g diacid/g added feedstock) sAA-2178,[3],0.090 g diacid/g added feedstock
same,% improvement over ATTC 20962 sAA-1082,[4],41.8%
same,Feedstock Yield (g diacid/g added feedstock) sAA-1082,[4],0.084 g diacid/g added feedstock
same,Feedstock Yield (g diacid/g added feedstock) ATTC-20962,[5],0.059 g diacid/g added feedstock
CCCCCCCCCCCCCCCCCC(=O)OCC [Ethyl stearate],% improvement over ATTC 20962 sAA-2178,[3],92.7%
same,Feedstock Yield (g diacid/g added feedstock) sAA-2178,[3],0.143 g diacid/g added feedstock
same,% improvement over ATTC 20962 sAA-1082,[4],14.5%
same,Feedstock Yield (g diacid/g added feedstock) sAA-1082,[4],0.085 g diacid/g added feedstock
same,Feedstock Yield (g diacid/g added feedstock) ATTC-20962,[5],0.074 g diacid/g added feedstock
CCCCCCCCCCCCCC(=O)OCC [Ethyl tetradecanoate],% improvement over ATTC 20962 sAA-2178,[3],28.1%
same,Feedstock Yield (g diacid/g added feedstock) sAA-2178,[3],0.444 g diacid/g added feedstock
same,% improvement over ATTC 20962 sAA-1082,[4],16.5%
same,Feedstock Yield (g diacid/g added feedstock) sAA-1082,[4],0.404 g diacid/g added feedstock
same,Feedstock Yield (g diacid/g added feedstock) ATTC-20962,[5],0.347 g diacid/g added feedstock
CCCCCCCCCCCC(=O)OC [Methyl Laurate],HFA,[2]; [9],3.31 g/L
same,Lauric Acid,[2]; [9],8.36 g/L
same,Productivity (g/L-h),[2]; [9],0.638 g/L-h
same,HFA,[2]; [10],3.83 g/L
same,Lauric Acid,[2]; [10],3.88 g/L
same,Productivity (g/L-h),[2]; [10],0.832 g/L-h
O=C(O)CCCCCCCCC(=O)O [Sebacic Acid],Diacid composition (fraction of total diacids),[1]; pH 4.5,0.00
same,Diacid composition (fraction of total diacids),[1]; pH 6.0,0.10
same,Diacid composition (fraction of total diacids),[1]; pH 7.5,0.17
O=C(O)CCCCCCC(=O)O [Suberic Acid],Diacid composition (fraction of total diacids),[1]; pH 4.5,0.68
same,Diacid composition (fraction of total diacids),[1]; pH 6.0,0.75
same,Diacid composition (fraction of total diacids),[1]; pH 7.5,0.62
O=C[C@H](O)[C@@H](O)[C@H](O)[C@H](O)CO [dextrose],lauric acid accumulated,[6],0.52 g/L
same,production of DDDA,[6],0.872 g/L-h
same,HFA levels,[7],1.24 g/L
same,lauric acid accumulated,[7],0.37 g/L
same,production of DDDA,[7],0.825 g/L-h
CCO [ethanol],accumulation of HFA,[8],5.3 g/L
same,accumulation of lauric acid,[8],8.5 g/L
same,accumulation of methyl laurate,[8],38 g/L
same,DDDA productivity,[8]; methyl laurate feed,0.446 gL
OCC(O)CO [glycerol],HFA levels,[7],0.33 g/L
same,lauric acid accumulated,[7],12.28 g/L
same,"production of DDDA, less than with dextrose",[7],about 60%
same,production of DDDA,[7],0.327 g/L-h
CCCCCCCCCCCCC [n-Tridecane],% improvement over ATTC 20962 sAA-2178,[3],27.7%
same,Feedstock Yield (g diacid/g added feedstock) sAA-2178,[3],0.868 g diacid/g added feedstock
same,% improvement over ATTC 20962 sAA-1082,[4],38.3%
same,Feedstock Yield (g diacid/g added feedstock) sAA-1082,[4],0.941 g diacid/g added feedstock
same,Feedstock Yield (g diacid/g added feedstock) ATTC-20962,[5],0.680 g diacid/g added feedstock
CCCCCCCCCCC [n-Undecane],% improvement over ATTC 20962 sAA-2178,[3],29.3%
same,Feedstock Yield (g diacid/g added feedstock) sAA-2178,[3],0.403 g diacid/g added feedstock
same,% improvement over ATTC 20962 sAA-1082,[4],23.7%
same,Feedstock Yield (g diacid/g added feedstock) sAA-1082,[4],0.386 g diacid/g added feedstock
same,Feedstock Yield (g diacid/g added feedstock) ATTC-20962,[5],0.312 g diacid/g added feedstock
CCCCCCCCCCCCCCCCC [n-heptadecane],% improvement over ATTC 20962 sAA-2178,[3],8.6%
same,Feedstock Yield (g diacid/g added feedstock) sAA-2178,[3],0.514 g diacid/g added feedstock
same,% improvement over ATTC 20962 sAA-1082,[4],17.3%
same,Feedstock Yield (g diacid/g added feedstock) sAA-1082,[4],0.555 g diacid/g added feedstock
same,Feedstock Yield (g diacid/g added feedstock) ATTC-20962,[5],0.473 g diacid/g added feedstock
CCCCCCCCCCCCCCC [n-pentadecane],% improvement over ATTC 20962 sAA-2178,[3],16.8%
same,Feedstock Yield (g diacid/g added feedstock) sAA-2178,[3],0.590 g diacid/g added feedstock
same,% improvement over ATTC 20962 sAA-1082,[4],33.1%
same,Feedstock Yield (g diacid/g added feedstock) sAA-1082,[4],0.673 g diacid/g added feedstock
same,Feedstock Yield (g diacid/g added feedstock) ATTC-20962,[5],0.505 g diacid/g added feedstock
OC[C@H]1O[C@@](CO)(O[C@H]2O[C@H](CO)[C@@H](O)[C@H](O)[C@H]2O)[C@@H](O)[C@@H]1O [sucrose],lauric acid accumulated,[6],1.56 g/L
same,"production of DDDA, less than with dextrose",[6],about 3%
same,production of DDDA,[6],0.847 g/L-h
O=C[C@H](O)[C@@H](O)[C@H](O)CO [xylose],HFA levels,[7],0.20 g/L
same,lauric acid accumulated,[7],19.04 g/L
same,"production of DDDA, less than with dextrose",[7],about 75%
same,production of DDDA,[7],0.211 g/L-h
